Data set [1] addresses Klebsiella aerogenes E70 β-lactamase. Description: β-lactamase inhibition I50. In kind it is biochemical.
Data set [2] concerns the target T1, Escherichia coli JT4 β-lactamase (Escherichia coli, UniProt P62593).
T1 construct: host or cells: Escherichia coli JT4
Description: β-lactamase inhibition I50. In kind it is biochemical.

The target of data set [3] is T2, Staphylococcus aureus Russell β-lactamase (Staphylococcus aureus, UniProt P00807).
T2 construct: host or cells: Staphylococcus aureus Russell
T2 sequence (P00807 25-281): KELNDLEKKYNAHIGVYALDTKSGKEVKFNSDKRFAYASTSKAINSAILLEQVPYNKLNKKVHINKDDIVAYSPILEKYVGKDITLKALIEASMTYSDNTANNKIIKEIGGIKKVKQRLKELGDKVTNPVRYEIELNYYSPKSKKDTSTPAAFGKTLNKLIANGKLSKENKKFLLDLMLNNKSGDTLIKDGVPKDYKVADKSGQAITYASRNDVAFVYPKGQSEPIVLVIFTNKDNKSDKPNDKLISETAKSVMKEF
Nature of the data set: β-lactamase inhibition I50. Type of data set: biochemical.

Data set [4] concerns the target Proteus mirabilis C889 β-lactamase. Description: β-lactamase inhibition I50. In kind it is biochemical.
The nature of data set [5]: Toxicity in mice, sub-cutaneous administration (LD50). The conditions noted are these: mouse, in vivo, sc.
The target of data set [6] is T3, Pseudomonas dalgleish β-lactamase (Pseudomonas aeruginosa, UniProt P16897).
T3 construct: host or cells: Pseudomonas aeruginosa Dalgleish
T3 sequence (P16897 18-288): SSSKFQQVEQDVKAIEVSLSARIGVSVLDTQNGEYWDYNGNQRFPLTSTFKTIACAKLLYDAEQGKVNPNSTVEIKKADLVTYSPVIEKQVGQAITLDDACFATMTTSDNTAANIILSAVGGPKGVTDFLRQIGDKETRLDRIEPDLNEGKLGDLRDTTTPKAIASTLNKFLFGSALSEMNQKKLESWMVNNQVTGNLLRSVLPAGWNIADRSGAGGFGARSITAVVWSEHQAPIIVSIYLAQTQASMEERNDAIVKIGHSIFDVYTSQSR
Nature of the data set: β-lactamase inhibition I50. In kind it is biochemical.

The test system of data set [7] is E. coli JT 39 (R+) infection. Description: CD50 of amoxycillin with a salt of O-ethylclavulanic acid or clavulanic acid, similar test dosing at 1, 3 and 5 hours. Particulars: (×3) dosing at 1, 3 and 5 hours post infection. In kind it is in vivo. On the procedure:
(§1) e. CD50 values of amoxycillin alone and together with a salt of O-ethylclavulanate acid against an E. coli JT 39 (R^+) infection. The test compounds were administered to mice sub-cutaneously in freshly prepared buffered saline (0.4 mg/ml) at 1 hour and 5 hours post inter peritoneal infection.
In a similar test dosing at 1, 3 and 5 hours post infection the following results were obtained: […]

In data set [8] the test system is E. coli JT 39 (R+) infection. Description: CD50 with sodium O-methylclavulanate or sodium clavulanate as synergist, dosing at 1 and 5 hours. Type of data set: in vivo. The conditions noted are these: (×2) sub-cutaneous at 1 and 5 hours post infection. As to the method:
d. […]
The test compounds were administered sub-cutaneously in freshly prepared buffered saline at 1 hour and 5 hours post intra peritoneal infection: […]

Data set [9] relates to E. coli JT 39 (R+) infection. Description: CD50 of amoxycillin with a salt of O-ethylclavulanic acid or clavulanic acid, dosing at 1 and 5 hours. Particulars: (×2) mice, sub-cutaneous at 1 and 5 hours. In kind it is in vivo. As to the method:
as §1

Data set [10] addresses Pseudomonas aeruginosa β-lactamase. Description: β-lactamase inhibition I50. Type of data set: biochemical.
The test system of data set [11] is Klebsiella I.112 infection. Description: CD50 of amoxycillin alone and with synergist, oral dosing at 1, 3 and 5 hours. In kind it is in vivo. Particulars: (×3) mice, oral at 1, 3 and 5 hours post infection. On the procedure: f. CD50 values of amoxycillin alone and together with a salt of O-methylclavulanic acid or O-ethylclavulanic acid against a Klebsiella I.112 infection. The test compounds were administered orally to mice at 1, 3 and 5 hours post inter peritoneal infection.
[In these tests amoxycillin trihydrate equivalent to the stated weights of amoxycillin were used].

In data set [12] the test system is Staphylococcus aureus Russell. Description: Standard MIC test of ampicillin in the presence of compounds of the invention. In kind it is cell-based. The conditions noted are these: ampicillin alone, read-out: Concentration of ampicillin in the absence of synergist that did not inhibit growth. As to the method: b. When tested in standard MIC tests in combination with ampicillin the compounds of this invention are seen to enhance the effectiveness of the penicillin against various gram-positive and gram-negative organisms such as strains of Staphylococcus aureus Russell, Klebsiella aerogenes, Proteus mirabilis and Escherichia coli: for example the following MIC values against Staphylococcus aureus Russell were obtained for ampicillin in the presence of 1 μg/ml of certain compounds of the invention:
None of the synergists inhibited the growth of the test organism at 5 μg/ml.

Data set [13] deals with Staph. Russell. Nature of the data set: MIC of ampicillin alone and together with sodium O-methylclavulanate. In kind it is cell-based. The conditions noted are these: Staphylococcus aureus, 0 μg/ml of sodium O-methylclavulanate. The source says: (§2) c. MIC values of ampicillin alone and together with sodium O-methylclavulanate against 3 strains of Straphylococcus aureus and 3 strains of R^+ E. coli

In data set [14] the test system is Staph. M B9. Described as above. The conditions noted are these: Staphylococcus aureus, 0 μg/ml of sodium O-methylclavulanate. In kind it is cell-based.
Description: as §2

In data set [15] the test system is E. coli JT 98. The data set is described as above. Particulars: Escherichia coli, JT98, 0 μg/ml of sodium O-methylclavulanate. Type of data set: cell-based.
Description: as §2

Data set [16] has as its system Staph. H. The data set is described as above. The conditions noted are these: Staphylococcus aureus, 0 μg/ml of sodium O-methylclavulanate. In kind it is cell-based.
Description: as §2

The test system of data set [17] is E. coli JT 39. The description is as above. In kind it is cell-based. Particulars: Escherichia coli, JT39, 0 μg/ml of sodium O-methylclavulanate.
Description: as §2

The subject of data set [18] is E. coli JT 68. The description is as above. Type of data set: cell-based. Particulars: Escherichia coli, JT68, 0 μg/ml of sodium O-methylclavulanate.
Description: as §2

Data set [19] deals with P. moig, Cr. β-lactamase. Description: β-lactamase inhibition I50. In kind it is biochemical.
Data set [20] addresses T4, Escherichia coli JT410 β-lactamase (Escherichia coli, UniProt P00811).
T4 construct: host or cells: Escherichia coli JT410
Description: β-lactamase inhibition I50. In kind it is biochemical.

Data set [21] can be described thus: Blood levels in mice after oral administration. In kind it is in vivo. Particulars: mouse, 20 mg/kg, read-out: Blood level. On the procedure:
b. Blood levels in mice after oral administration of 20 mg/kg of sodium O-methylclavulanate

The nature of data set [22]: Blood levels in mice after sub-cutaneous administration. Type of data set: in vivo. Particulars: mouse, sc, 50 mg/kg, read-out: Blood level, mean result for 5 mice; for concentration at 0.5 h: 30 min; for concentration at 0.75 h: 45 min; for concentration at 1 h: 60 min; for concentration at 1.5 h: 90 min. On the procedure:
a. Blood levels in mice after sub-cutaneous administration of 50 mg/kg of a solution of sodium O-methylclavulanate

The subject of data set [23] is 3 strains of Straphylococcus aureus and 3 strains of R+ E. coli. Nature of the data set: MIC of sodium O-methylclavulanate alone against each test organism. Type of data set: cell-based, Staphylococcus aureus; E. coli. Particulars: read-out: MIC of sodium O-methylclavulanate against each test organism. As to the method:
as §2
The MIC of sodium O-methylclavulanate against each test organism was in the range 20-40 μg/ml.

The nature of data set [24]: Blood level in test mammals. Type of data set: in vivo. The conditions noted are these: compared with an equivalent amount of the salt of clavulanic acid.
The mark [25] stands for this setting: columns Synergist = Salt of clavulanic acid.

Where a name gives a salt, the structure may show the parent alone.

T1 sequence (P62593 24-286 limits assumed): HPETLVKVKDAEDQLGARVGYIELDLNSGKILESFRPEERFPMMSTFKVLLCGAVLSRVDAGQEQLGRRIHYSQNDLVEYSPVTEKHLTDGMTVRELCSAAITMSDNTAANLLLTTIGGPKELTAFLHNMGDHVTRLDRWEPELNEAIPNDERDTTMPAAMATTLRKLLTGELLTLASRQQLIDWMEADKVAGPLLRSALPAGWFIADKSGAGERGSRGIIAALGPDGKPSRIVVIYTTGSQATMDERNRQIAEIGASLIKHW
T4 sequence (P00811 20-377): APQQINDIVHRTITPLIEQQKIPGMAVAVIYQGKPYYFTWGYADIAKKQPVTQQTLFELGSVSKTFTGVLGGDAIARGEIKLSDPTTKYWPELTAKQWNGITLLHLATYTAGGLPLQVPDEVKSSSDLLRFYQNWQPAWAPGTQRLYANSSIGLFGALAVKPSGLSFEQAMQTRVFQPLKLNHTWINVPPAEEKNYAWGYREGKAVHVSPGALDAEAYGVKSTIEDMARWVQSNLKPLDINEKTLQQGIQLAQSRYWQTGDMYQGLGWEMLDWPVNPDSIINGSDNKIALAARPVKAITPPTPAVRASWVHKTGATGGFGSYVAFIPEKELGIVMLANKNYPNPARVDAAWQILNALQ

On to `COC(=O)[C@H]1/C(=C/COCc2ccccc2)O[C@@H]2CC(=O)N21` [Example 4, Methyl 9-O-benzylclavulanate], for which the “β-lactamase inhibition I50, Klebsiella aerogenes E70” value in data set [1] worked out at 0.8 µg/mL. Also, the IC50 (commonly the concentration needed to halve the response being measured) in data set [2] is 2640 nM; in data set [3], 16.5 nM.

With `CCOC(=O)COC/C=C1\O[C@@H]2CC(=O)N2[C@H]1C(=O)O` [Example 7, Sodium 9-O-ethoxycarbonylmethylclavulanate], the “β-lactamase inhibition I50, Proteus mirabilis C889” value in data set [4] amounted to 0.025 µg/mL. In addition, the “β-lactamase inhibition I50, Klebsiella aerogenes E70” value in data set [1] came out at 0.034 µg/mL. The IC50 was 561 nM in data set [2] and 154 nM in data set [3].

As for `O=C(O)[C@H]1/C(=C/COCc2ccccc2)O[C@@H]2CC(=O)N21` [Example 5, Sodium 9-O-benzylclavulanate], the “β-lactamase inhibition I50, Proteus mirabilis C889” value in data set [4] amounted to 0.02 µg/mL. In data set [5], the LD50 (in general, the dose at which mortality reaches 50%) is greater than 250 mg/kg. Moreover, in data set [1], the “β-lactamase inhibition I50, Klebsiella aerogenes E70” value was 0.04 µg/mL. Also, the IC50 in [2] is 346 nM; in data set [6], 27.7 nM; in data set [3], 17.3 nM.

With `CC1(C)S[C@@H]2[C@H](NC(=O)[C@H](N)c3ccc(O)cc3)C(=O)N2[C@H]1C(=O)O` [Sodium Amoxycillin], the “CD50 of Sodium Amoxycillin alone” value in data set [7] (setting [25]), in data set [8] (columns Synergist = Sodium clavulanate) and in data set [9] (setting [25]) was greater than 1000 mg/kg throughout. For the same compound, the ED50 in data set [7] (Escherichia coli, in Mus musculus, sc, columns Synergist = Salt of O-ethylclavulanic acid, read-out: CD50 of Sodium Amoxycillin alone) was greater than 1000 mg/kg; in data set [8] (Escherichia coli, sc, columns Synergist = Sodium O-methylclavulanate, read-out: CD50 of Sodium Amoxycillin alone) it was greater than 1000 mg/kg; in data set [9] (Escherichia coli, sc, columns Synergist = Salt of O-ethylclavulanic acid, read-out: CD50 of Sodium Amoxycillin alone), greater than 1000 mg/kg.

In the case of `COC/C=C1\O[C@@H]2CC(=O)N2[C@H]1C(=O)OCc1ccccc1` [Example 2, Benzyl 9-O-methylclavulanate], in [4], the “β-lactamase inhibition I50, Proteus mirabilis C889” value is less than 0.07 µg/mL. In data set [1], the “β-lactamase inhibition I50, Klebsiella aerogenes E70” value is 0.05 µg/mL. For the same compound, the half-maximal inhibitory concentration (IC50) in data set [2] was 330 nM; in data set [6], less than 231 nM; in data set [3], 165 nM. The “β-lactamase inhibition I50, Pseudomonas aeruginosa” value in [10] was determined as 1.4 µg/mL.

Take `CC1(C)S[C@@H]2[C@H](NC(=O)[C@H](N)c3ccc(O)cc3)C(=O)N2[C@H]1C(=O)O` [Amoxycillin]: the ED50 in [11] is greater than 1000 mg/kg.

Regarding `CC1(C)S[C@@H]2[C@H](NC(=O)[C@H](N)c3ccccc3)C(=O)N2[C@H]1C(=O)O` [Ampicillin, ampicillin], the MIC was greater than 250 µg/mL in [12]; 80 µg/mL in data set [13]; 640 µg/mL in data set [14]; 1280 µg/mL in [15]; 640 µg/mL in [16]; greater than 2560 µg/mL in data set [17]. Moreover, the MIC in [18] worked out at 2560 µg/mL.

Regarding `CCOC(=O)COC/C=C1\O[C@@H]2CC(=O)N2[C@H]1C(=O)OCc1ccccc1` [Example 6, Benzyl 9-O-ethoxycarbonylmethylclavulanate], the “β-lactamase inhibition I50, Proteus mirabilis C889” value in data set [4] amounted to 1.0 µg/mL. Besides, the “β-lactamase inhibition I50, Klebsiella aerogenes E70” value in [1] is 0.30 µg/mL. In addition, the values for the 50% inhibitory concentration (IC50) in data set [2] and in data set [3] were 373 nM and 320 nM, respectively.

On to `COC/C=C1\O[C@@H]2CC(=O)N2[C@H]1C(=O)OC` [Example 1, Methyl 9--O--methylclavulanate], for which the “β-lactamase inhibition I50, Klebsiella aerogenes E70” value in data set [1] stood at 0.25 µg/mL. Moreover, the “β-lactamase inhibition I50, P. moig, Cr.” value in [19] came out at 0.68 µg/mL. For the same compound, the half-maximal inhibitory concentration (IC50) in data set [2] was 3960 nM; in data set [20], 13600 nM; in data set [3] it was 2200 nM. In addition, the “β-lactamase inhibition I50, Pseudomonas aeruginosa” value in data set [10] came out at 1.9 µg/mL.

For `COC/C=C1\O[C@@H]2CC(=O)N2[C@H]1C(=O)O` [Example 3, Sodium 9-O-methylclavulanate], in data set [4], the “β-lactamase inhibition I50, Proteus mirabilis C889” value was 0.01 µg/mL. In addition, the “β-lactamase inhibition I50, Klebsiella aerogenes E70” value in [1] worked out at 0.07 µg/mL. For the same compound, the concentration at 0.25 h in [21] (15 min) stood at 5200 ng/mL. Moreover, the values for the concentration at 0.5 h in [21] (30 min) and in [22] were 3400 ng/mL and 7900 ng/mL, respectively. The concentration at 0.75 h in data set [21] (45 min) was 2200 ng/mL; in [22], 4100 ng/mL. Besides, the concentration at 1 h in [21] (60 min) was 1200 ng/mL; in data set [22], 1400 ng/mL. Besides, the values for the concentration at 1.5 h in data set [21] (90 min) and in data set [22] were 500 ng/mL and 480 ng/mL, respectively. The concentration for half-maximal inhibition (IC50) is 844 nM in data set [2] and 235 nM in data set [3]. Moreover, the concentration at 10 min in data set [22] amounted to 14500 ng/mL. In addition, the concentration at 20 min in data set [22] amounted to 12800 ng/mL. The MIC in [23] was 20 to 40 µg/mL.

Regarding `COC/C=C1\O[C@@H]2CC(=O)N2[C@H]1C(=O)O` [salt of O-methylclavulanic acid], the “Blood level after administration, in words” value in [24] is listed as “more prolonged blood level”.

Turning to `N#CCOC/C=C1\O[C@@H]2CC(=O)N2[C@H]1C(=O)O` [Example 12, Sodium 9-O-cyanomethylclavulanate], the 50% lethal dose (LD50) in data set [5] was greater than 250 mg/kg.

Take `O=C(O)[C@H]1/C(=C/CO)O[C@@H]2CC(=O)N21` [Sodium clavulanate, reference compound]: in data set [22], the concentration at 10 min is 9300 ng/mL, the concentration at 20 min amounted to 8700 ng/mL, the concentration at 0.5 h is 2990 ng/mL and the concentration at 0.75 h was 1950 ng/mL. Moreover, in [22], the concentration at 1 h turned out to be 500 ng/mL and the concentration at 1.5 h was found to be 90 ng/mL.

For the origin of these results see patent US4228174A, “Clavulanic acid ethers” (priority 1975, dated 1980).
